Numbers after ± are expanded uncertainties.
Details: 101.33 kPa, Liquid

## CCC1COC(=O)O1 (configuration not stated) [1,2-butylene carbonate]
283 K
  mass density: 1155.2 ± 0.4 kg/m3
293.1 K
  mass density: 1146.6 ± 0.4 kg/m3
295.1 K
  mass density: 1144.9 ± 0.4 kg/m3
297.1 K
  mass density: 1143.3 ± 0.4 kg/m3
299.1 K
  mass density: 1141.7 ± 0.4 kg/m3
301.1 K
  mass density: 1140.1 ± 0.4 kg/m3
303.1 K
  mass density: 1138.6 ± 0.4 kg/m3

Reference: the NIST ThermoML archive (doi:10.1021/je800583r)
